Assay results published in ChEMBL document CHEMBL1201862, “PubChem BioAssay data set” (2004).
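The compound was tested at five concentrations on cells cultured in 96-well plates, with a 48-hour exposure period. GI50 is the concentration that inhibits growth by half.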 Active and inactive are the calls of the source. No stated cut-off is given here; in the data, active = GI50 up to about 1.1 µM and inactive = higher.

How the values were obtained:
Test in all cases: NCI tumour cell line growth inhibition, 48 h
T47D = tested on: T47D
RXF 393 = tested on: RXF 393
HOP-92 = tested on: HOP-92
HCC 2998 = tested on: HCC 2998
TK-10 = tested on: TK-10
K562 = tested on: K562
HL-60 = tested on: HL-60
Hs-578T = tested on: Hs-578T
DU-145 = tested on: DU-145
U-251 = tested on: U-251
OVCAR-4 = tested on: OVCAR-4
RPMI-8226 = tested on: RPMI-8226
SNB-19 = tested on: SNB-19
NCI-H460 = tested on: NCI-H460
SF-295 = tested on: SF-295
HOP-62 = tested on: HOP-62
SK-MEL-5 = tested on: SK-MEL-5
PC-3 = tested on: PC-3
SF-539 = tested on: SF-539
ACHN = tested on: ACHN

C=CC[C@]12C=C(OC)[C@@H](O)[C@](OC)(C(c3cc(OC)c4c(c3)OCO4)[C@H]1C)[C@H]2OC(C)=O (some centres undefined)
GI50 (T47D): > 100 µM (inactive) | GI50 (RXF 393): > 100 µM (inactive) | GI50 (HOP-92): 83.6 µM (inactive) | GI50 (HCC 2998): > 100 µM (inactive) | GI50 (TK-10): > 100 µM (inactive) | GI50 (K562): > 100 µM (inactive) | GI50 (HL-60): 91 µM (inactive) | GI50 (Hs-578T): 22.6 µM (inactive) | GI50 (DU-145): > 100 µM (inactive) | GI50 (U-251): > 100 µM (inactive) | GI50 (OVCAR-4): 69.2 µM (inactive) | GI50 (RPMI-8226): > 100 µM (inactive) | GI50 (SNB-19): > 100 µM (inactive) | GI50 (NCI-H460): > 100 µM (inactive) | GI50 (SF-295): > 100 µM (inactive) | GI50 (HOP-62): > 100 µM (inactive) | GI50 (SK-MEL-5): > 100 µM (inactive) | GI50 (PC-3): 62.5 µM (inactive) | GI50 (SF-539): > 100 µM (inactive) | GI50 (ACHN): > 100 µM (inactive)

NC(=O)C(Nc1ccc(Cl)cc1)c1cc2cc(Br)ccc2nc1Cl (centres undefined)
GI50 (T47D): 37.2 µM (inactive) | GI50 (RXF 393): 41.1 µM (inactive) | GI50 (HOP-92): 17.7 µM (inactive) | GI50 (HCC 2998): > 50 µM (inactive) | GI50 (TK-10): 19.9 µM (inactive) | GI50 (K562): 20.5 µM (inactive) | GI50 (HL-60): > 50 µM (inactive) | GI50 (Hs-578T): > 50 µM (inactive) | GI50 (DU-145): > 50 µM (inactive) | GI50 (OVCAR-4): > 50 µM (inactive) | GI50 (RPMI-8226): 27.8 µM (inactive) | GI50 (SNB-19): > 50 µM (inactive) | GI50 (NCI-H460): > 50 µM (inactive) | GI50 (SF-295): > 50 µM (inactive) | GI50 (HOP-62): > 50 µM (inactive) | GI50 (SK-MEL-5): 42.2 µM (inactive) | GI50 (PC-3): > 50 µM (inactive) | GI50 (SF-539): 18.5 µM (inactive) | GI50 (ACHN): > 50 µM (inactive)

CC[C@H](C)c1occ2c(O)c(C(=O)O)c(=O)cc-2c1C
GI50 (T47D): 20.7 µM (inactive) | GI50 (RXF 393): 15.5 µM (inactive) | GI50 (HOP-92): 21.8 µM (inactive) | GI50 (HCC 2998): 21.1 µM (inactive) | GI50 (TK-10): 40.8 µM (inactive) | GI50 (K562): 29.1 µM (inactive) | GI50 (HL-60): 12.7 µM (inactive) | GI50 (Hs-578T): 48.5 µM (inactive) | GI50 (DU-145): 34.9 µM (inactive) | GI50 (U-251): 28.5 µM (inactive) | GI50 (OVCAR-4): 24.8 µM (inactive) | GI50 (RPMI-8226): 30.7 µM (inactive) | GI50 (SNB-19): 31.7 µM (inactive) | GI50 (NCI-H460): 24.3 µM (inactive) | GI50 (SF-295): 31.3 µM (inactive) | GI50 (HOP-62): 24.9 µM (inactive) | GI50 (SK-MEL-5): 18.3 µM (inactive) | GI50 (PC-3): 33.5 µM (inactive) | GI50 (SF-539): 20.7 µM (inactive) | GI50 (ACHN): 26.7 µM (inactive)

CCN(CC)c1ccc(NC(=S)NN(C)C)cc1
GI50 (T47D): > 10 µM (inactive) | GI50 (RXF 393): > 10 µM (inactive) | GI50 (HOP-92): > 10 µM (inactive) | GI50 (HCC 2998): > 10 µM (inactive) | GI50 (TK-10): > 10 µM (inactive) | GI50 (K562): > 10 µM (inactive) | GI50 (HL-60): > 10 µM (inactive) | GI50 (Hs-578T): > 10 µM (inactive) | GI50 (DU-145): > 10 µM (inactive) | GI50 (U-251): > 10 µM (inactive) | GI50 (OVCAR-4): > 10 µM (inactive) | GI50 (RPMI-8226): > 10 µM (inactive) | GI50 (SNB-19): > 10 µM (inactive) | GI50 (NCI-H460): > 10 µM (inactive) | GI50 (SF-295): > 10 µM (inactive) | GI50 (HOP-62): > 10 µM (inactive) | GI50 (SK-MEL-5): > 10 µM (inactive) | GI50 (PC-3): > 10 µM (inactive) | GI50 (SF-539): > 10 µM (inactive) | GI50 (ACHN): > 10 µM (inactive)

COc1cc2c(cc1C[N+](C)(C)CSc1ccccc1)-c1ccccc1CC2
GI50 (T47D): 2.91 µM (inactive) | GI50 (RXF 393): 6.53 µM (inactive) | GI50 (HOP-92): 8.51 µM (inactive) | GI50 (HCC 2998): 4.31 µM (inactive) | GI50 (TK-10): 8.77 µM (inactive) | GI50 (K562): 2.18 µM (inactive) | GI50 (HL-60): 0.721 µM (active) | GI50 (Hs-578T): 4.99 µM (inactive) | GI50 (DU-145): 8.61 µM (inactive) | GI50 (U-251): 4.14 µM (inactive) | GI50 (OVCAR-4): 5.98 µM (inactive) | GI50 (RPMI-8226): 1.57 µM (inactive) | GI50 (SNB-19): 4.28 µM (inactive) | GI50 (NCI-H460): 3.29 µM (inactive) | GI50 (SF-295): 12.2 µM (inactive) | GI50 (HOP-62): 11.4 µM (inactive) | GI50 (SK-MEL-5): 1.17 µM (inactive) | GI50 (PC-3): 2.61 µM (inactive) | GI50 (SF-539): 7.96 µM (inactive) | GI50 (ACHN): 15.3 µM (inactive)

Cc1cc(NS(=O)(=O)c2ccc(NC(NC(=O)OC(C)C)(C(F)(F)F)C(F)(F)F)cc2)nc(C)n1
GI50 (T47D): 60.7 µM (inactive) | GI50 (RXF 393): > 100 µM (inactive) | GI50 (HOP-92): > 100 µM (inactive) | GI50 (HCC 2998): > 100 µM (inactive) | GI50 (TK-10): > 100 µM (inactive) | GI50 (K562): > 100 µM (inactive) | GI50 (HL-60): > 100 µM (inactive) | GI50 (Hs-578T): > 100 µM (inactive) | GI50 (DU-145): > 100 µM (inactive) | GI50 (U-251): > 100 µM (inactive) | GI50 (OVCAR-4): > 100 µM (inactive) | GI50 (RPMI-8226): > 100 µM (inactive) | GI50 (SNB-19): > 100 µM (inactive) | GI50 (NCI-H460): > 100 µM (inactive) | GI50 (SF-295): > 100 µM (inactive) | GI50 (HOP-62): > 100 µM (inactive) | GI50 (SK-MEL-5): > 100 µM (inactive) | GI50 (PC-3): > 100 µM (inactive) | GI50 (SF-539): > 100 µM (inactive) | GI50 (ACHN): > 100 µM (inactive)

O=C1N[C@H]2c3c(Cl)sc(Cl)c3C(=O)[C@H]2O1
GI50 (T47D): 31.6 µM (inactive) | GI50 (RXF 393): 25.6 µM (inactive) | GI50 (HOP-92): 18.5 µM (inactive) | GI50 (HCC 2998): 5.46 µM (inactive) | GI50 (TK-10): 64.1 µM (inactive) | GI50 (K562): 2.99 µM (inactive) | GI50 (HL-60): 1.79 µM (inactive) | GI50 (Hs-578T): 17.9 µM (inactive) | GI50 (DU-145): 23.4 µM (inactive) | GI50 (U-251): 5.51 µM (inactive) | GI50 (OVCAR-4): 21.9 µM (inactive) | GI50 (RPMI-8226): 19.7 µM (inactive) | GI50 (SNB-19): 20.6 µM (inactive) | GI50 (NCI-H460): 8.89 µM (inactive) | GI50 (SF-295): 18.8 µM (inactive) | GI50 (HOP-62): 20.9 µM (inactive) | GI50 (SK-MEL-5): 24 µM (inactive) | GI50 (PC-3): 18.2 µM (inactive) | GI50 (SF-539): 9.68 µM (inactive) | GI50 (ACHN): 13.4 µM (inactive)
